Source: ChEMBL document CHEMBL5131574, “Discovery of Inhibitors of DNA Methyltransferase 2, an Epitranscriptomic Modulator and Potential Target for Cancer Treatment” (J Med Chem, 2022)

Key:
[1] = Cytotoxicity against human HEK293 cells assessed as cell viability at 100 uM measured after 24 hrs by MTT assay; format: toxicity, cell-based
[2] = target: DNA (cytosine-5)-methyltransferase 3A (Homo sapiens) (UniProt Q9Y6K1); assay: Inhibition of recombinant human DNMT3A-3L expressed in Escherichia coli Rosetta2(DE3)pLysS at 100 uM using Poly(dI-dC)-Poly(dI-dC) as substrate measured at 150 mins by liquid scintillation counting analysis
Chain of DNA (cytosine-5)-methyltransferase 3A (Homo sapiens) (Q9Y6K1 whole entry, looked up): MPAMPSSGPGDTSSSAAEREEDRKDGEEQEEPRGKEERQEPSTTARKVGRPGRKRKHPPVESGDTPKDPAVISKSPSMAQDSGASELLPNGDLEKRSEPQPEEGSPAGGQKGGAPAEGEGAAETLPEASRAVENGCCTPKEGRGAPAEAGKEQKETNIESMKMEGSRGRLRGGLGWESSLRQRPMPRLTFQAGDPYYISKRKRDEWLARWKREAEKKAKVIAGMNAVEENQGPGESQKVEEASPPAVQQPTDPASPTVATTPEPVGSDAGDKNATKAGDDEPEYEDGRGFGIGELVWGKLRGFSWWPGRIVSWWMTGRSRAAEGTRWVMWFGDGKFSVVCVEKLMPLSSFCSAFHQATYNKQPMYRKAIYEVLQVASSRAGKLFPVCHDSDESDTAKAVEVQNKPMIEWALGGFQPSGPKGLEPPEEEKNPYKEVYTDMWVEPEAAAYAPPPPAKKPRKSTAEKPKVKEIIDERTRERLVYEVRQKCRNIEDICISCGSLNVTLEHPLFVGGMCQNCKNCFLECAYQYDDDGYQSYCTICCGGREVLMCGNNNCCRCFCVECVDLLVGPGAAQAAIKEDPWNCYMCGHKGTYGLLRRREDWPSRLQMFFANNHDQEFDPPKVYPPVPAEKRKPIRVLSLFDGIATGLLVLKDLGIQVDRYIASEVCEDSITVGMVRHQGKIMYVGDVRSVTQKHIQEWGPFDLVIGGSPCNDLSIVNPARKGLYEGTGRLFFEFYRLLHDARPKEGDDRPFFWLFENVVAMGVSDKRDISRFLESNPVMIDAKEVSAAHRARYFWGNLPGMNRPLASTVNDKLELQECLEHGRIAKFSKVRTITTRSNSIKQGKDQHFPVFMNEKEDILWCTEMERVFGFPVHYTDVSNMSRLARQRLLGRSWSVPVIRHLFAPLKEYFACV

[3] = target: T1, tRNA (cytosine(72)-C(5))-methyltransferase NSUN6 (Homo sapiens) (UniProt Q8TEA1); assay: Inhibition of full length human NSUN6 expressed in Escherichia coli Rosetta2(DE3)pLysS at 100 uM measured at 20 mins by liquid scintillation counting analysis
T1 sequence (whole entry): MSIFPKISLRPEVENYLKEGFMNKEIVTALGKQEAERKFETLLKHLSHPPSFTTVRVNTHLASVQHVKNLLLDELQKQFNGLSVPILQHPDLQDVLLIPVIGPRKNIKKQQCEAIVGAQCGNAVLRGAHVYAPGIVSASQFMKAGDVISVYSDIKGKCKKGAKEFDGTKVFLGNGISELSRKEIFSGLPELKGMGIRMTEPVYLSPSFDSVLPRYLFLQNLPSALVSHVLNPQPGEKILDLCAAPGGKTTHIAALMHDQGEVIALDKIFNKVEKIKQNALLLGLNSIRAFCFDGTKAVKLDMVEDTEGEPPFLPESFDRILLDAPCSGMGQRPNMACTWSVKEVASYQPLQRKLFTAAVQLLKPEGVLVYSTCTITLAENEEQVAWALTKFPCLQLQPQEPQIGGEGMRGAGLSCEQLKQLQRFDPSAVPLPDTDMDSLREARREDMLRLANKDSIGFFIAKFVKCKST

[4] = target: T2, Histone-lysine N-methyltransferase EHMT2 (Homo sapiens) (UniProt Q96KQ7); assay: Inhibition of recombinant human EHMT2 G9a expressed in Escherichia coli Rosetta2(DE3)pLysS at 100 uM using histone H3 as substrate measured at 120 mins by liquid scintillation counting analysis
T2 sequence (whole entry): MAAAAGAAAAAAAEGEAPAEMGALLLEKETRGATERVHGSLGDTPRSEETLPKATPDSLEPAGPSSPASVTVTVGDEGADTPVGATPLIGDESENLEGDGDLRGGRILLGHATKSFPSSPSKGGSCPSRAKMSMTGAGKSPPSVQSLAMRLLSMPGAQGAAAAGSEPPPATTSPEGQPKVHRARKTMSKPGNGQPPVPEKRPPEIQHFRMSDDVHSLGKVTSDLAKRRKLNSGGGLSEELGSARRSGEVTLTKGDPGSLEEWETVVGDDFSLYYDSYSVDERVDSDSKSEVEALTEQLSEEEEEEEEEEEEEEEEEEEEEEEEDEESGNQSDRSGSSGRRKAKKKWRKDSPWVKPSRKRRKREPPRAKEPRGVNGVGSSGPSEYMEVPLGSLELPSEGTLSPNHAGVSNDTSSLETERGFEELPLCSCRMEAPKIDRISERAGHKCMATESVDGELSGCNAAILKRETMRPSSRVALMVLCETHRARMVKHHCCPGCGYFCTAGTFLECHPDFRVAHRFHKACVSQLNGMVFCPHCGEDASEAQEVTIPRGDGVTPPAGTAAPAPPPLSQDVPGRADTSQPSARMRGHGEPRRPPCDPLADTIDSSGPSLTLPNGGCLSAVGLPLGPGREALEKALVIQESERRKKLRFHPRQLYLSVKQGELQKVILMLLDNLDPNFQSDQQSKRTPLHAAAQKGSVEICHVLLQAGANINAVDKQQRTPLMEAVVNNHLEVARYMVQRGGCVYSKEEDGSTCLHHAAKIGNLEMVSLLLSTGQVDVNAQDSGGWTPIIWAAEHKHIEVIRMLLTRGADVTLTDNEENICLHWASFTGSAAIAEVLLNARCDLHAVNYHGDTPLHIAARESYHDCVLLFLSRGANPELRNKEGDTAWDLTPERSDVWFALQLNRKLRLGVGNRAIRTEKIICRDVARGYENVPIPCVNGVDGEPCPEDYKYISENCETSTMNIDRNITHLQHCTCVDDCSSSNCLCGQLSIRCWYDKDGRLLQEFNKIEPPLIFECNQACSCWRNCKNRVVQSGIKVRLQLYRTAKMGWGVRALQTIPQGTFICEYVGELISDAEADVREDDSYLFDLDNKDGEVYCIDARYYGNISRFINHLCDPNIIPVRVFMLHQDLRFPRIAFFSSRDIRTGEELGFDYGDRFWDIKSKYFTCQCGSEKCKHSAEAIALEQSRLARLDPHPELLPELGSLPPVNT

[5] = target: T3, tRNA (cytosine(38)-C(5))-methyltransferase (Homo sapiens, UniProt O14717); assay: Binding affinity to full length human N-terminal his6-tagged DNMT2 expressed in Escherichia coli Rosetta2(DE3)pLysS assessed as dissociation constant at 100 uM by isothermal titration calorimetry assay
T3 sequence (O14717 whole entry): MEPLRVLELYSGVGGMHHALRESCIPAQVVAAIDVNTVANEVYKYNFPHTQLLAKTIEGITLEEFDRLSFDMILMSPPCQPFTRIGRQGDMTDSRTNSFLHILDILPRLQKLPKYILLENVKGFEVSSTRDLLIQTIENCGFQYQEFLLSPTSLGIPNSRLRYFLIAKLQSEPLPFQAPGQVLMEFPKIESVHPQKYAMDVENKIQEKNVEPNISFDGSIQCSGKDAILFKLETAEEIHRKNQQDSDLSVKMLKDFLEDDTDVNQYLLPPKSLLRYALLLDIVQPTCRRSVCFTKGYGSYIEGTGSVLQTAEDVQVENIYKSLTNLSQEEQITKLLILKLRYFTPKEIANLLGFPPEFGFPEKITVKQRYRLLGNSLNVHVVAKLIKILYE

[6] = target: T3, tRNA (cytosine(38)-C(5))-methyltransferase; assay: Inhibition of full length human N-terminal his6-tagged DNMT2 expressed in Escherichia coli Rosetta2(DE3)pLysS by […] assay
[7] = target: T4, tRNA (cytosine(38)-C(5))-methyltransferase (Homo sapiens) (UniProt O14717); assay: Binding affinity to full length human N-terminal his6-tagged DNMT2 expressed in Escherichia coli Rosetta2(DE3)pLysS assessed as gibbs free energy change at 100 uM by isothermal titration calorimetry assay
T4 sequence (whole entry): T3 sequence (O14717 whole entry)

[8] = target: T4, tRNA (cytosine(38)-C(5))-methyltransferase (Homo sapiens); assay: Binding affinity to full length human N-terminal his6-tagged DNMT2 expressed in Escherichia coli Rosetta2(DE3)pLysS assessed as change in enthalpy change at 100 uM by isothermal titration calorimetry assay
[9] = target: T4, tRNA (cytosine(38)-C(5))-methyltransferase (Homo sapiens); assay: Binding affinity to full length human N-terminal his6-tagged DNMT2 expressed in Escherichia coli Rosetta2(DE3)pLysS assessed as change in entropy at 100 uM by isothermal titration calorimetry assay
[10] = target: RNA cytosine C(5)-methyltransferase NSUN2 (Homo sapiens) (UniProt Q08J23); assay: Inhibition of full length recombinant human NSUN2 expressed in Escherichia coli Rosetta2(DE3)pLysS at 100 uM measured at 20 mins by liquid scintillation counting analysis
Chain of RNA cytosine C(5)-methyltransferase NSUN2 (Homo sapiens) (Q08J23 whole entry): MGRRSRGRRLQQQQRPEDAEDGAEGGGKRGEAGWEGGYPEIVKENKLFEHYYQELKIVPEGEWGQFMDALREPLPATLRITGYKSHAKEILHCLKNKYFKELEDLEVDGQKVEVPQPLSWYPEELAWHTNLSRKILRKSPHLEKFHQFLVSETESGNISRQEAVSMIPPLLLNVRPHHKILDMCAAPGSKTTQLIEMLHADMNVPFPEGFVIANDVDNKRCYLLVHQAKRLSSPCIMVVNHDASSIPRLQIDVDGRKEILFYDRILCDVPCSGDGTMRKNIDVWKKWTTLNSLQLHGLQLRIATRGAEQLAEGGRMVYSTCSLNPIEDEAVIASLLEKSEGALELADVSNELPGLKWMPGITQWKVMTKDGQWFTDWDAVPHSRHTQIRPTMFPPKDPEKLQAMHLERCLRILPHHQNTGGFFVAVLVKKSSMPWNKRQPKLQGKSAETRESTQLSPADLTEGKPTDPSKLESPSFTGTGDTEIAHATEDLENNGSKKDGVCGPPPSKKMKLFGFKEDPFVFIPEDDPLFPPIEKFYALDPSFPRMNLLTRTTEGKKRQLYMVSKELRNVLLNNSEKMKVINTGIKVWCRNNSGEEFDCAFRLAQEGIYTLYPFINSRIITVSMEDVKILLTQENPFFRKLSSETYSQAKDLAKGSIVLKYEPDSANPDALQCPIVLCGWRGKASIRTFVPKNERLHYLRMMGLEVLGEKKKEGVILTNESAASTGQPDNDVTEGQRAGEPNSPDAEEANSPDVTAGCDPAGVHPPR

[11] = target: T4, tRNA (cytosine(38)-C(5))-methyltransferase (Homo sapiens); assay: Inhibition of full length human N-terminal his6-tagged DNMT2 expressed in Escherichia coli Rosetta2(DE3)pLysS at 100 uM by liquid scintillation counting analysis
[12] = Selectivity ratio of Kd for binding affinity to full length human N-terminal his6-tagged DNMT2 expressed in Escherichia coli Rosetta2(DE3)pLysS assessed as dissociation constant to IC50 for inhibition of full length human N-terminal his6-tagged DNMT2 expressed in Escherichia coli Rosetta2(DE3)pLysS
[13] = target: T4, tRNA (cytosine(38)-C(5))-methyltransferase (Homo sapiens); assay: Inhibition of DNMT2-mediated tRNA methylation in human HEK293 cells assessed as reduction in m5C at C38 of tRNA by measuring m5C level at 100 uM incubated for 24 hrs by bisulfite sequencing analysis; format: cell-based
[14] = Stability of the compound in TRIS buffer at 7.4 pH assessed as hydrolysis of ethyl ester at 100 uM incubated for 24 hrs by LC-MS analysis; format: physicochemical; settings: pH 7.4, read-out: Drug degradation
[15] = Permeability of the compound in human Caco-2 cells assessed as compound remaining by measuring ester form of the acceptor compartment incubated for 24 hrs by LC/MS analysis; format: ADME, cell-based; settings: caco-2, 24 h
[16] = Permeability of the compound in human Caco-2 cells assessed as compound remaining by measuring ester form of the donor compartment incubated for 24 hrs by LC/MS analysis; format: ADME, cell-based; settings: read-out: Activity
[17] = Permeability of the compound in human Caco-2 cells assessed as compound remaining by measuring acid form of the donor compartment incubated for 24 hrs by LC/MS analysis; format: ADME, cell-based; settings: caco-2, 24 h

| Compound | CC50 at 24 h [1] [µM] | inhibition [2] [%] | inhibition [3] [%] | inhibition [4] [%] | Kd [5] [µM] | IC50 [6] [µM] | deltaG [7] [kcal/mol] | deltaH [8] [kcal/mol] | -TdeltaS [9] [kcal/mol] | inhibition [10] [%] | inhibition [11] [%] | Selectivity ratio [12] | inhibition [13] [%] | degraded at 24 h, 100 µM [14] [%] | Activity [15] [%] | remaining at 24 h [16] [%] | Activity [17] |
| --- | --- | --- | --- | --- | --- | --- | --- | --- | --- | --- | --- | --- | --- | --- | --- | --- | --- |
| CCCN(CC[C@H](N)C(=O)O)C[C@H]1O[C@@H](n2cnc3c(N)ncnc32)[C@H](O)[C@@H]1O | > 500 | – | – | – | – | – | – | – | – | – | – | – | – | – | – | – | – |
| CC#CCN(CC[C@H](N)C(=O)O)C[C@H]1O[C@@H](n2cnc3c(N)ncnc32)[C@H](O)[C@@H]1O | – | 93.9 | 12.9 | 37.6 | – | – | – | – | – | – | – | – | – | – | – | – | – |
| Nc1ncnc2c1ncn2[C@@H]1O[C@H](CSCC[C@H](N)C(=O)O)[C@@H](O)[C@H]1O [S-ADENOSYLHOMOCYSTEINE] | – | 96.7 | 99.6 | 94.3 | 13.6 | 15.8 | -6.64 | -13.2 | 6.57 | 97.3 | 85.7 | – | – | – | – | – | – |
| C#CCN(CC[C@H](N)C(=O)O)C[C@H]1O[C@@H](n2cnc3c(N)ncnc32)[C@H](O)[C@@H]1O | – | 97.6 | 25.9 | 22.8 | 11.4 | 77.1 | -6.74 | -9.03 | 2.29 | – | 72.2 | 7 | – | – | – | – | – |
| CCC#CCN(CC[C@H](N)C(=O)O)C[C@H]1O[C@@H](n2cnc3c(N)ncnc32)[C@H](O)[C@@H]1O | – | 95.3 | 22.7 | 32 | – | – | – | – | – | – | – | – | – | – | – | – | – |
| Nc1ncnc2c1ncn2[C@@H]1O[C@H](C[C@@H](N)CC[C@H](N)C(=O)O)[C@@H](O)[C@H]1O [SINEFUNGIN] | > 500 | 98 | 70.2 | 43 | 7.5 | 13.2 | -7 | -5.86 | -1.15 | 77.1 | 83.5 | 2 | 94 | – | – | – | – |
| C#CC(C)N(CC[C@H](N)C(=O)OCC)C[C@H]1O[C@@H](n2cnc3c(N)ncnc32)[C@H](O)[C@@H]1O (some centres undefined) | > 500 | – | – | – | – | – | – | – | – | – | – | – | – | 60 | 2 | 20 | <= 78% |
| C#CC(C)N(CC[C@H](N)C(=O)O)C[C@H]1O[C@@H](n2cnc3c(N)ncnc32)[C@H](O)[C@@H]1O (some centres undefined) | > 500 | 84.2 | – | 71 | – | – | – | – | – | – | – | – | – | – | 0.6 | – | – |
